Test results as given in patent publication US7417156B2, “Orally active, antimalarial, anticancer, artemisinin-derived trioxane dimers” (Johns Hopkins University, priority 2002, dated 2008).

Experiments:
RPMI-8226 = test: NCI 60 cell line panel screen (SRB); type: cell-based, human
SR = test: NCI 60 cell line panel screen (SRB); type: cell-based, human
NCI-H226 = test: NCI 60 cell line panel screen (SRB); type: cell-based, human
NCI-H322M = type: cell-based
COLO 205 = test: NCI 60 cell line panel screen (SRB); type: cell-based, human
HCC-2998 = test: NCI 60 cell line panel screen (SRB); type: cell-based, human
HT29 = test: NCI 60 cell line panel screen (SRB); type: cell-based, human
SW-620 = test: NCI 60 cell line panel screen (SRB); type: cell-based, human
SF-295 = test: NCI 60 cell line panel screen (SRB); type: cell-based, human
SNB-75 = test: NCI 60 cell line panel screen (SRB); type: cell-based, human
U251 = test: NCI 60 cell line panel screen (SRB); type: cell-based, human
LOX IMVI = test: NCI 60 cell line panel screen (SRB); type: cell-based, human
SK-MEL-28 = test: NCI 60 cell line panel screen (SRB); type: cell-based, human
SK-MEL-5 = test: NCI 60 cell line panel screen (SRB); type: cell-based, human
UACC-62 = test: NCI 60 cell line panel screen (SRB); type: cell-based, human
OVCAR-4 = test: NCI 60 cell line panel screen (SRB); type: cell-based, human
OVCAR-5 = test: NCI 60 cell line panel screen (SRB); type: cell-based, human
OVCAR-8 = test: NCI 60 cell line panel screen (SRB); type: cell-based, human
786-0 = test: NCI 60 cell line panel screen (SRB); type: cell-based, human
A498 = test: NCI 60 cell line panel screen (SRB); type: cell-based, human
SN12C = test: NCI 60 cell line panel screen (SRB); type: cell-based, human
TK-10 = test: NCI 60 cell line panel screen (SRB); type: cell-based, human
UO-31 = test: NCI 60 cell line panel screen (SRB); type: cell-based, human
DU-145 = test: NCI 60 cell line panel screen (SRB); type: cell-based, human
MDA-MB-435 = test: NCI 60 cell line panel screen (SRB); type: cell-based, human
MDA-N = test: NCI 60 cell line panel screen (SRB); type: cell-based, human
T-47D = test: NCI 60 cell line panel screen (SRB); type: cell-based, human; settings: T-47D (Breast Cancer)

CC1CCC2C(C)C(CC(CO)CC3OC4OC5(C)CCC6C(C)CCC(C3C)C46OO5)OC3OC4(C)CCC1C32OO4 (centres unmarked) [Compound 4, bis-trioxane primary alcohol]
Log10GI50 (RPMI-8226; Leukemia, RPMI-8226): <−8.00
Log10LC50 (RPMI-8226; RPMI-8226 (Leukemia), LC50: PG=−50): >−4.00 log10M
Log10TGI50 (RPMI-8226; RPMI-8226 (Leukemia), TGI: PG=0): −6.91 log10M
Log10GI50 (SR; Leukemia, SR): <−8.00
Log10LC50 (SR; SR (Leukemia), LC50: PG=−50): >−4.00 log10M
Log10TGI50 (SR; SR (Leukemia), TGI: PG=0): −4.58 log10M
Log10LC50 (NCI-H226; NCI-H226 (Non-Small Cell Lung Cancer), LC50: PG=−50): >−4.00 log10M
Log10TGI50 (NCI-H226; NCI-H226 (Non-Small Cell Lung Cancer), TGI: PG=0): −4.40 log10M
Log10GI50 (NCI-H226; Non-Small Cell Lung Cancer, NCI-H226): −4.82
Log10LC50 (NCI-H322M; NCI-H322M (Non-Small Cell Lung Cancer), LC50: PG=−50): −4.29 log10M
Log10TGI50 (NCI-H322M; NCI-H322M (Non-Small Cell Lung Cancer), TGI: PG=0): −4.63 log10M
Log10GI50 (NCI-H322M; Non-Small Cell Lung Cancer, NCI-H322M): −4.97
Log10LC50 (COLO 205; COLO 205 (Colon Cancer), LC50: PG=−50): −4.50 log10M
Log10TGI50 (COLO 205; COLO 205 (Colon Cancer), TGI: PG=0): −6.43 log10M
Log10GI50 (COLO 205; Colon Cancer, COLO 205): <−8.00
Log10GI50 (HCC-2998; Colon Cancer, HCC-2998): −7.45
Log10LC50 (HCC-2998; HCC-2998 (Colon Cancer), LC50: PG=−50): −4.59 log10M
Log10TGI50 (HCC-2998; HCC-2998 (Colon Cancer), TGI: PG=0): −5.39 log10M
Log10GI50 (HT29; Colon Cancer, HT29): −7.75
Log10LC50 (HT29; HT29 (Colon Cancer), LC50: PG=−50): >−4.00 log10M
Log10TGI50 (HT29; HT29 (Colon Cancer), TGI: PG=0): −4.67 log10M
Log10GI50 (SW-620; Colon Cancer, SW-620): <−8.00
Log10LC50 (SW-620; SW-620 (Colon Cancer), LC50: PG=−50): −4.44 log10M
Log10TGI50 (SW-620; SW-620 (Colon Cancer), TGI: PG=0): −4.89 log10M
Log10GI50 (SF-295; CNS Cancer, SF-295): −5.59
Log10LC50 (SF-295; SF-295 (CNS Cancer), LC50: PG=−50): −4.39 log10M
Log10TGI50 (SF-295; SF-295 (CNS Cancer), TGI: PG=0): −4.80 log10M
Log10GI50 (SNB-75; CNS Cancer, SNB-75): −4.99
Log10LC50 (SNB-75; SNB-75 (CNS Cancer), LC50: PG=−50): −4.12 log10M
Log10TGI50 (SNB-75; SNB-75 (CNS Cancer), TGI: PG=0): −4.55 log10M
Log10GI50 (U251; CNS Cancer, U251): −7.27
Log10LC50 (U251; U251 (CNS Cancer), LC50: PG=−50): >−4.00 log10M
Log10TGI50 (U251; U251 (CNS Cancer), TGI: PG=0): −4.47 log10M
Log10LC50 (LOX IMVI; LOX IMVI (Melanoma), LC50: PG=−50): >−4.00 log10M
Log10TGI50 (LOX IMVI; LOX IMVI (Melanoma), TGI: PG=0): −4.45 log10M
Log10GI50 (LOX IMVI; Melanoma, LOX IMVI): −7.26
Log10GI50 (SK-MEL-28; Melanoma, SK-MEL-28): −4.95
Log10LC50 (SK-MEL-28; SK-MEL-28 (Melanoma), LC50: PG=−50): −4.12 log10M
Log10TGI50 (SK-MEL-28; SK-MEL-28 (Melanoma), TGI: PG=0): −4.54 log10M
Log10GI50 (SK-MEL-5; Melanoma, SK-MEL-5): −7.90
Log10LC50 (SK-MEL-5; SK-MEL-5 (Melanoma), LC50: PG=−50): −4.53 log10M
Log10TGI50 (SK-MEL-5; SK-MEL-5 (Melanoma), TGI: PG=0): −7.18 log10M
Log10GI50 (UACC-62; Melanoma, UACC-62): −6.86
Log10LC50 (UACC-62; UACC-62 (Melanoma), LC50: PG=−50): −4.29 log10M
Log10TGI50 (UACC-62; UACC-62 (Melanoma), TGI: PG=0): −4.74 log10M
Log10LC50 (OVCAR-4; OVCAR-4 (Ovarian Cancer), LC50: PG=−50): −4.16 log10M
Log10TGI50 (OVCAR-4; OVCAR-4 (Ovarian Cancer), TGI: PG=0): −4.62 log10M
Log10GI50 (OVCAR-4; Ovarian Cancer, OVCAR-4): −5.44
Log10LC50 (OVCAR-5; OVCAR-5 (Ovarian Cancer), LC50: PG=−50): −4.54 log10M
Log10TGI50 (OVCAR-5; OVCAR-5 (Ovarian Cancer), TGI: PG=0): −6.42 log10M
Log10GI50 (OVCAR-5; Ovarian Cancer, OVCAR-5): −7.79
Log10LC50 (OVCAR-8; OVCAR-8 (Ovarian Cancer), LC50: PG=−50): −4.03 log10M
Log10TGI50 (OVCAR-8; OVCAR-8 (Ovarian Cancer), TGI: PG=0): −4.69 log10M
Log10GI50 (OVCAR-8; Ovarian Cancer, OVCAR-8): −7.33
Log10LC50 (786-0; 786-0 (Renal Cancer), LC50: PG=−50): −4.31 log10M
Log10TGI50 (786-0; 786-0 (Renal Cancer), TGI: PG=0): −4.83 log10M
Log10GI50 (786-0; Renal Cancer, 786-0): −7.48
Log10LC50 (A498; A498 (Renal Cancer), LC50: PG=−50): −4.50 log10M
Log10TGI50 (A498; A498 (Renal Cancer), TGI: PG=0): −5.00 log10M
Log10GI50 (A498; Renal Cancer, A498): −6.69
Log10GI50 (SN12C; Renal Cancer, SN12C): −7.46
Log10LC50 (SN12C; SN12C (Renal Cancer), LC50: PG=−50): −4.35 log10M
Log10TGI50 (SN12C; SN12C (Renal Cancer), TGI: PG=0): −4.84 log10M
Log10GI50 (TK-10; Renal Cancer, TK-10): −6.60
Log10LC50 (TK-10; TK-10 (Renal Cancer), LC50: PG=−50): −4.38 log10M
Log10TGI50 (TK-10; TK-10 (Renal Cancer), TGI: PG=0): −4.81 log10M
Log10GI50 (UO-31; Renal Cancer, UO-31): −7.46
Log10LC50 (UO-31; UO-31 (Renal Cancer), LC50: PG=−50): −5.14 log10M
Log10TGI50 (UO-31; UO-31 (Renal Cancer), TGI: PG=0): −5.77 log10M
Log10LC50 (DU-145; DU-145 (Prostate Cancer), LC50: PG=−50): −4.36 log10M
Log10TGI50 (DU-145; DU-145 (Prostate Cancer), TGI: PG=0): −4.72 log10M
Log10GI50 (DU-145; Prostate Cancer, DU-145): −6.24
Log10GI50 (MDA-MB-435; Breast Cancer, MDA-MB-435): −7.50
Log10LC50 (MDA-MB-435; MDA-MB-435 (Breast Cancer), LC50: PG=−50): −4.30 log10M
Log10TGI50 (MDA-MB-435; MDA-MB-435 (Breast Cancer), TGI: PG=0): −4.78 log10M
Log10GI50 (MDA-N; Breast Cancer, MDA-N): −7.54
Log10LC50 (MDA-N; MDA-N (Breast Cancer), LC50: PG=−50): −4.45 log10M
Log10TGI50 (MDA-N; MDA-N (Breast Cancer), TGI: PG=0): −4.90 log10M
Log10LC50 (T-47D; LC50: PG=−50): −4.17 log10M
Log10TGI50 (T-47D; TGI: PG=0): −4.73 log10M
